Measured values reported in publication PMC6001238, “Iterative Chemical Engineering of Vancomycin Leads to Novel Vancomycin Analogs With a High in Vitro Therapeutic Index” (Frontiers in Microbiology, 2018).
Values after ≈ are worked out from the molar mass of the structure shown.

Columns and labels:
[1] = tested on: Murine leukemia (L1210) cells; test: Cytostatic activity, L1210 cell proliferation; format: cell-based; details: mean ± SD of three experiments; highest concentration tested 250 µM; 2 days; read-out: Toxicity (IC50) L1210
Outline: (§1)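 Suspensions (300,000–500,000 cells/mL) combined with equal volumes of diluted compound; 37°C; L1210 2 d / CEM 3 d / HeLa 4 d; counted by Coulter counter; IC50 vs untreated wells.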

MRSA KS2 = test: MIC, broth microdilution, MRSA KS2; format: cell-based, Staphylococcus aureus; details: for MIC-fold improvement vs. vancomycin: MRSA KS2, ratio of MIC of vancomycin and MIC of analogue; for MIC: Staphylococcus aureus MRSA KS2, read-out: MIC
Outline: (§2)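 Serial dilutions in broth, set up per CLSI guidance, gave the MIC. Where noted, test analogues or comparator antibiotics were combined with vancomycin at 10 μM final. Controls: ultrapure water, broth without inoculum.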

E. faecalis VRE 37 = test: MIC, broth microdilution, vancomycin-resistant E. faecalis VRE 37 (VanA); format: cell-based, Enterococcus faecalis; details: for MIC: Enterococcus faecalis VRE 37 (vancomycin-resistant), read-out: MIC
Outline: as §2

E. faecalis VRE 29 = test: MIC, broth microdilution, vancomycin-resistant E. faecalis VRE 29 (VanA); format: cell-based, Enterococcus faecalis; details: for MIC: Enterococcus faecalis VRE 29 (vancomycin-resistant), read-out: MIC; for MIC-fold improvement vs. vancomycin: VRE 29, ratio of MIC of vancomycin and MIC of analogue
Outline: as §2

[2] = tested on: human cervix carcinoma (HeLa) cells; test: Cytostatic activity, HeLa cell proliferation; format: cell-based; details: mean ± SD of three experiments; highest concentration tested 250 µM; 4 days; read-out: Toxicity (IC50) HeLa
Outline: as §1

MRSA KS1 = test: MIC, broth microdilution, MRSA KS1; format: cell-based, Staphylococcus aureus; details: for MIC-fold improvement vs. vancomycin: MRSA KS1, ratio of MIC of vancomycin and MIC of analogue; for MIC: Staphylococcus aureus MRSA KS1, read-out: MIC
Outline: as §2

[3] = tested on: S. aureus VSSA (ATCC 6538); test: MIC, broth microdilution, vancomycin-sensitive S. aureus (VSSA/MSSA, ATCC 6538); format: cell-based, Staphylococcus aureus; details: for MIC: Staphylococcus aureus VSSA, read-out: MIC; for MIC-fold improvement vs. vancomycin: VSSA, ratio of MIC of vancomycin and MIC of analogue
Outline: as §2

E. faecalis VSE 1 = test: MIC, broth microdilution, vancomycin-sensitive E. faecalis (VSE 1); format: cell-based, Enterococcus faecalis; details: for MIC: Enterococcus faecalis VSE 1 (vancomycin-sensitive), read-out: MIC; for MIC-fold improvement vs. vancomycin: VSE 1, ratio of MIC of vancomycin and MIC of analogue
Outline: as §2

S. aureus VRSA = test: MIC, broth microdilution, vancomycin-resistant S. aureus (VRSA); format: cell-based, Staphylococcus aureus; details: for MIC: Staphylococcus aureus VRSA, read-out: MIC; for MIC-fold improvement vs. vancomycin: VRSA, ratio of MIC of vancomycin and MIC of analogue
Outline: as §2

MRSA KS6 = test: MIC, broth microdilution, MRSA KS6; format: cell-based, Staphylococcus aureus; details: for MIC-fold improvement vs. vancomycin: MRSA KS6, ratio of MIC of vancomycin and MIC of analogue; for MIC: Staphylococcus aureus MRSA KS6, read-out: MIC
Outline: as §2

MRSA KS89 = test: MIC, broth microdilution, MRSA KS89; format: cell-based, Staphylococcus aureus; details: for MIC-fold improvement vs. vancomycin: MRSA KS8, ratio of MIC of vancomycin and MIC of analogue; for MIC: Staphylococcus aureus MRSA KS8, read-out: MIC
Outline: as §2

[4] = tested on: L1210, CEM and HeLa cell lines; test: Cytostatic activity, average or summary over L1210, CEM and HeLa; format: cell-based; details: average of L1210, CEM and HeLa; read-out: Toxicity (IC50) Average
Outline: as §1

E. faecalis VRE 6 = test: MIC, broth microdilution, vancomycin-resistant E. faecalis VRE 6 (VanA); format: cell-based, Enterococcus faecalis; details: for MIC: Enterococcus faecalis VRE 6 (vancomycin-resistant), read-out: MIC; for MIC-fold improvement vs. vancomycin: VRE 6, ratio of MIC of vancomycin and MIC of analogue
Outline: as §2

S. aureus VISA/HIP5827 = test: MIC, broth microdilution, vancomycin-intermediate S. aureus VISA HIP5827; format: cell-based, Staphylococcus aureus; details: for MIC: Staphylococcus aureus VISA/HIP5827, read-out: MIC; for MIC-fold improvement vs. vancomycin: VISA/HIP5827, ratio of MIC of vancomycin and MIC of analogue
Outline: as §2

[5] = tested on: human T-lymphocyte (CEM) cells; test: Cytostatic activity, CEM cell proliferation; format: cell-based; details: mean ± SD of three experiments; highest concentration tested 250 µM; 3 days; read-out: Toxicity (IC50) CEM
Outline: as §1

E. faecalis VRE 53 = test: MIC, broth microdilution, vancomycin-resistant E. faecalis VRE 53 (VanA); format: cell-based, Enterococcus faecalis; details: for MIC: Enterococcus faecalis VRE 53 (vancomycin-resistant), read-out: MIC; for MIC-fold improvement vs. vancomycin: VRE 53, ratio of MIC of vancomycin and MIC of analogue
Outline: as §2

Row | MIC-fold improvement vs. vancomycin (MRSA KS2) | MIC (MRSA KS2) [µM] | MIC (E. faecalis VRE 37) [µM] | MIC (E. faecalis VRE 29) [µM] | MIC-fold improvement vs. vancomycin (E. faecalis VRE 29) | MIC-fold improvement vs. vancomycin (MRSA KS1) | MIC (MRSA KS1) [µM] | MIC [3] [µM] | MIC-fold improvement vs. vancomycin [3] | MIC (E. faecalis VSE 1) [µM] | MIC-fold improvement vs. vancomycin (E. faecalis VSE 1) | MIC (S. aureus VRSA) [µM] | MIC-fold improvement vs. vancomycin (S. aureus VRSA) | MIC-fold improvement vs. vancomycin (MRSA KS6) | MIC (MRSA KS6) [µM] | MIC-fold improvement vs. vancomycin (MRSA KS89) | MIC (MRSA KS89) [µM] | Compound | IC50 [1] [µM] | IC50 [2] [µM] | IC50 [4] [µM] | other results
1 | 8 | 0.10 (≈ 0.168 µg/mL) | 6.25 (≈ 10.5 µg/mL) | 6.25 (≈ 10.5 µg/mL) | 64 | 8 | 0.10 (≈ 0.168 µg/mL) | 0.10 (≈ 0.168 µg/mL) | 8 | ≤0.05 | ≥32 | 0.78 (≈ 1.31 µg/mL) | 128 | 4 | 0.20 (≈ 0.337 µg/mL) | 4 | 0.20 (≈ 0.337 µg/mL) | CNC(CC(C)C)C(=O)NC1C(=O)NC(CC(N)=O)C(=O)NC2C(=O)NC3C(=O)NC(C(=O)NC(C(=O)NCC(=O)Nc4ccc5c(c4)C(=O)c4ccccc4-5)c4cc(O)cc(O)c4-c4cc3ccc4O)C(O)c3ccc(c(Cl)c3)Oc3cc2cc(c3OC2OC(CO)C(O)C(O)C2OC2CC(C)(N)C(O)C(C)O2)Oc2ccc(cc2Cl)C1O (stereo not shown) [Vanc-89] | 71 ± 56 | 154 ± 30 | 88 | MIC-fold improvement vs. vancomycin (E. faecalis VRE 37; VRE 37, ratio of MIC of vancomycin and MIC of analogue): 64; MIC (E. faecalis VRE 6): 3.13 µM (≈ 5.27 µg/mL); MIC-fold improvement vs. vancomycin (E. faecalis VRE 6): 64; MIC (S. aureus VISA/HIP5827): 0.78 µM (≈ 1.31 µg/mL); MIC-fold improvement vs. vancomycin (S. aureus VISA/HIP5827): 8; IC50 [5]: 38 ± 10 µM; MIC (E. faecalis VRE 53): 12.5 µM (≈ 21 µg/mL); MIC-fold improvement vs. vancomycin (E. faecalis VRE 53): 32
2 | 1 | 0.78 (≈ 1.27 µg/mL) | 25 (≈ 40.6 µg/mL) | 25 (≈ 40.6 µg/mL) | 16 | 1 | 0.78 (≈ 1.27 µg/mL) | 0.78 (≈ 1.27 µg/mL) | 1 | 0.78 (≈ 1.27 µg/mL) | 2 | 25 (≈ 40.6 µg/mL) | 4 | 1 | 0.78 (≈ 1.27 µg/mL) | 1 | 0.78 (≈ 1.27 µg/mL) | CN[C@H](CC(C)C)C(=O)N[C@H]1C(=O)N[C@@H](CC(N)=O)C(=O)N[C@H]2C(=O)N[C@H]3C(=O)N[C@H](C(=O)N[C@H](C(=O)NCC(=O)Nc4c(C)cc(C)cc4C)c4cc(O)cc(O)c4-c4cc3ccc4O)[C@H](O)c3ccc(c(Cl)c3)Oc3cc2cc(c3O[C@@H]2O[C@H](CO)[C@@H](O)[C@H](O)[C@H]2O[C@H]2C[C@](C)(N)[C@H](O)[C@H](C)O2)Oc2ccc(cc2Cl)[C@H]1O [Vanc-9] | > 250 | 83 ± 5 | 191 | MIC (E. faecalis VRE 6): 6.25 µM (≈ 10.1 µg/mL); MIC-fold improvement vs. vancomycin (E. faecalis VRE 6): 32; MIC (S. aureus VISA/HIP5827): 1.56 µM (≈ 2.53 µg/mL); MIC-fold improvement vs. vancomycin (S. aureus VISA/HIP5827): 4; IC50 [5]: 240 ± 14 µM; MIC (E. faecalis VRE 53): 25 µM (≈ 40.6 µg/mL); MIC-fold improvement vs. vancomycin (E. faecalis VRE 53): 16
